# Assay results published in the Kinase Knowledgebase extract (Sharma et al. 2016).
# Biological target: MAPK14 (human) (UniProt Q16539)
# Experiment: Inhibition of MAPK14 Kinase Activity by PHAS-I Assay
# Details: not given
# Sequence of MAPK14 (human) (Q16539 whole entry, looked up): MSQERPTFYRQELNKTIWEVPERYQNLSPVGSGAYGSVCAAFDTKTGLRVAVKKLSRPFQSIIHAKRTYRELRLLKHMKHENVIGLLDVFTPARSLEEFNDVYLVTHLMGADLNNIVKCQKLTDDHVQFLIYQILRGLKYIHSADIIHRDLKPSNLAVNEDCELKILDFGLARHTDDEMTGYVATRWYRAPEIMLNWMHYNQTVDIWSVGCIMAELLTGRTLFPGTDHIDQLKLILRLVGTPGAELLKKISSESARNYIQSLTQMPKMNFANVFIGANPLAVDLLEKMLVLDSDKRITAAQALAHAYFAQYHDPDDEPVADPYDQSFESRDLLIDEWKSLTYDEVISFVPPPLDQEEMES
row,Structure (SMILES),IC50
1,O=C(Nc1ccccc1)N[C@@H](Cc1ccccc1)c1[nH]nc(-c2ccc(F)cc2)c1-c1ccncc1,2600 nM
2,CNCCCNC(=O)CSc1[nH]nc(-c2ccc(Cl)cc2)c1-c1ccncc1,1660 nM
3,COc1ccc(-c2[nH]nc(C)c2-c2ccncc2)cc1Cl,100 nM
4,CCOC(=O)N1CCC(Nc2n[nH]c(-c3ccc(Cl)cc3)c2-c2ccncc2)CC1,> 100000 nM
5,Clc1ccc(-c2n[nH]c(N3CCSCC3)c2-c2ccncc2)cc1,770 nM
6,N#CCNc1[nH]nc(-c2ccc(F)cc2)c1-c1ccncc1,17 nM
7,O=C(N[C@H](Cc1ccccc1)c1[nH]nc(-c2ccc(F)cc2)c1-c1ccncc1)c1cnc2ccccc2n1,38100 nM
8,Clc1ccc(-c2n[nH]c(SCOC3CCCCO3)c2-c2ccncc2)cc1 (centres undefined),110 nM
9,C[C@@H](NC(=O)NCc1[nH]nc(-c2ccc(F)cc2)c1-c1ccncc1)c1ccccc1,910 nM
10,CCCc1n[nH]c(-c2cccc([N+](=O)[O-])c2)c1-c1ccncc1,12100 nM

# Same assay, conditions: concentration not given here
row,Structure (SMILES),inhibition
1,CCOC(=O)N1CCC(NC(=O)Cn2nc(-c3ccc(F)cc3)c(-c3ccncc3)c2C)CC1,72%
2,C=CCOC(=O)NCCc1[nH]nc(-c2ccc(F)cc2)c1-c1ccncc1,86%
3,Cc1c(-c2ccncc2)c(-c2ccc(F)cc2)nn1CC(=O)NC1CCN(Cc2ccccc2)C1 (centres undefined),73%
4,Cc1c(-c2ccncc2)c(-c2ccc(F)cc2)nn1CC(=O)NC1CCCCCC1,82%
5,COC(=O)[C@@H](Cc1cn(C)cn1)NC(=O)Cn1nc(-c2ccc(F)cc2)c(-c2ccncc2)c1C,19%
6,O=C(NCc1[nH]nc(-c2ccc(F)cc2)c1-c1ccncc1)c1cccc2ccccc12,91%
7,COC(=O)C(Cc1ccc([N+](=O)[O-])cc1)NC(=O)Cn1nc(-c2ccc(F)cc2)c(-c2ccncc2)c1C (centres undefined),75%
8,CC(C)COC(=O)NCCc1[nH]nc(-c2ccc(F)cc2)c1-c1ccncc1,75%
9,Cc1c(-c2ccncc2)c(-c2ccc(F)cc2)nn1CC(=O)Nc1cc(C(F)(F)F)cc(C(F)(F)F)c1,79%
10,O=C(NCCCc1[nH]nc(-c2ccc(F)cc2)c1-c1ccncc1)c1ccc(F)cc1,64%
11,CCOC(=O)c1cc(-c2ccc(NC(=O)Cn3nc(-c4ccc(F)cc4)c(-c4ccncc4)c3C)cc2)oc1C,87%
12,CCCC(CCC)NC(=O)Cn1nc(-c2ccc(F)cc2)c(-c2ccncc2)c1C,77%
13,CCOC(=O)CC(C)NC(=O)Cn1nc(-c2ccc(F)cc2)c(-c2ccncc2)c1C (centres undefined),43%
14,CCS(=O)(=O)NCCCc1[nH]nc(-c2ccc(F)cc2)c1-c1ccncc1,95%
15,Cc1c(-c2ccncc2)c(-c2ccc(F)cc2)nn1CC(=O)Nc1cccc(SC(F)(F)F)c1,82%
16,CC(C)S(=O)(=O)NCCCc1[nH]nc(-c2ccc(F)cc2)c1-c1ccncc1,84%
17,Cc1c(-c2ccncc2)c(-c2ccc(F)cc2)nn1CC(=O)N(C)CCc1ccccc1,32%
18,COc1ccc(NC(=O)NCCCc2[nH]nc(-c3ccc(F)cc3)c2-c2ccncc2)c(OC)c1,83%
19,O=C(NCCCc1[nH]nc(-c2ccc(F)cc2)c1-c1ccncc1)N1CCCC1,86%
20,Cc1c(-c2ccncc2)c(-c2ccc(F)cc2)nn1CC(=O)Nc1ccc(C2CCCCC2)cc1,87%

row,Structure (SMILES),inhibition
1,O=C(NCCCc1[nH]nc(-c2ccc(F)cc2)c1-c1ccncc1)c1ccncc1,77%
2,Cc1c(-c2ccncc2)c(-c2ccc(F)cc2)nn1CC(=O)N1Cc2ccsc2CC1c1ccc(Cl)cc1 (centres undefined),33%
3,Cc1c(-c2ccncc2)c(-c2ccc(F)cc2)nn1CC(=O)Nc1c(Cl)cccc1Cl,89%
4,CCN(CC)CC(C)NC(=O)Cn1nc(-c2ccc(F)cc2)c(-c2ccncc2)c1C (centres undefined),46%
5,O=C(NCCCc1[nH]nc(-c2ccc(F)cc2)c1-c1ccncc1)c1cnc2ccccc2n1,68%
6,O=C(NCCCc1[nH]nc(-c2ccc(F)cc2)c1-c1ccncc1)Nc1ccccc1,81%
7,O=C(NCCCc1[nH]nc(-c2ccc(F)cc2)c1-c1ccncc1)NCCc1ccccc1,82%
8,C=CCNC(=O)NCCCc1[nH]nc(-c2ccc(F)cc2)c1-c1ccncc1,87%
9,CN(C)C(=O)NCCCc1[nH]nc(-c2ccc(F)cc2)c1-c1ccncc1,90%
10,Cc1c(-c2ccncc2)c(-c2ccc(F)cc2)nn1CC(=O)Nc1ccccc1,85%
11,CC(C)COC(=O)NCCCc1[nH]nc(-c2ccc(F)cc2)c1-c1ccncc1,76%
12,CCCOC(=O)NCCc1[nH]nc(-c2ccc(F)cc2)c1-c1ccncc1,78%
13,Cc1c(-c2ccncc2)c(-c2ccc(F)cc2)nn1CC(=O)Nc1ccccc1C(C)(C)C,84%
14,Cc1c(-c2ccncc2)c(-c2ccc(F)cc2)nn1CC(=O)N(C)CC(N)=O,60%
15,Cc1c(-c2ccncc2)c(-c2ccc(F)cc2)nn1CC(=O)N1CCSC1c1ccco1 (centres undefined),78%
16,CCCN(CCC)CC(C)NC(=O)Cn1nc(-c2ccc(F)cc2)c(-c2ccncc2)c1C (centres undefined),17%
17,CCN(CC)CCN(CCN(CC)CC)C(=O)Cn1nc(-c2ccc(F)cc2)c(-c2ccncc2)c1C,47%
18,Cc1c(-c2ccncc2)c(-c2ccc(F)cc2)nn1CC(=O)Nc1ccccc1F,86%
19,Cc1c(-c2ccncc2)c(-c2ccc(F)cc2)nn1CC(=O)NC(C)c1ccc(Br)cc1 (centres undefined),71%
20,CCCS(=O)(=O)NCCCc1[nH]nc(-c2ccc(F)cc2)c1-c1ccncc1,92%

row,Structure (SMILES),inhibition
1,O=S(=O)(NCc1[nH]nc(-c2ccc(F)cc2)c1-c1ccncc1)c1cccc2cccnc12,73%
2,O=C(NCCCc1[nH]nc(-c2ccc(F)cc2)c1-c1ccncc1)c1ccno1,80%
3,COC(=O)C(NC(=O)Cn1nc(-c2ccc(F)cc2)c(-c2ccncc2)c1C)C(C)C (centres undefined),82%
4,CCN(CC)C(=O)NCCCc1[nH]nc(-c2ccc(F)cc2)c1-c1ccncc1,89%
5,Cc1c(-c2ccncc2)c(-c2ccc(F)cc2)nn1CC(=O)NC1CCCCC1,49%
6,CCCCS(=O)(=O)NCCCc1[nH]nc(-c2ccc(F)cc2)c1-c1ccncc1,87%
7,COC(=O)[C@H](CC(C)C)NC(=O)Cn1nc(-c2ccc(F)cc2)c(-c2ccncc2)c1C,47%
8,COc1ccc(S(=O)(=O)NCCCc2[nH]nc(-c3ccc(F)cc3)c2-c2ccncc2)cc1OC,74%
9,Cc1c(-c2ccncc2)c(-c2ccc(F)cc2)nn1CC(=O)Nc1cccc(Br)c1,88%
10,CC(=O)Nc1ccc(S(=O)(=O)NCc2[nH]nc(-c3ccc(F)cc3)c2-c2ccncc2)cc1,66%
11,O=C(NCCCc1[nH]nc(-c2ccc(F)cc2)c1-c1ccncc1)C1CC1,77%
12,Cc1c(-c2ccncc2)c(-c2ccc(F)cc2)nn1CC(=O)N(C)Cc1ccccc1,73%
13,Cc1c(-c2ccncc2)c(-c2ccc(F)cc2)nn1CC(=O)Nc1ccccc1C(=O)NC1CCCCC1,87%
14,COC(=O)[C@H](COCc1ccccc1)NC(=O)Cn1nc(-c2ccc(F)cc2)c(-c2ccncc2)c1C,76%
15,Cc1c(-c2ccncc2)c(-c2ccc(F)cc2)nn1CC(=O)N1CCSC1,63%
16,O=C(NCCCc1[nH]nc(-c2ccc(F)cc2)c1-c1ccncc1)c1cccnc1,72%
17,Cc1c(-c2ccncc2)c(-c2ccc(F)cc2)nn1CC(=O)Nc1cc([N+](=O)[O-])cc([N+](=O)[O-])c1,90%
18,O=C(NCCCc1[nH]nc(-c2ccc(F)cc2)c1-c1ccncc1)NCc1ccccc1,82%
19,Cc1ccc(S(=O)(=O)NCCCc2[nH]nc(-c3ccc(F)cc3)c2-c2ccncc2)cc1,68%
